# Assay results reported in PMC3388044, “Probing of Exosites Leads to Novel Inhibitor Scaffolds of HCV NS3/4A Proteinase” (PLoS ONE, 2012).
# Target: T1, HCV NS3/4A (wild-type) (Hepatitis C virus genotype 1b, UniProt O92972)
# T1 construct: The NS3/4A construct represented the individual NS3 proteinase domain N-terminally fused with an NS4A co-factor; 6xHis; purchased AnaSpec (Fremont, CA)
# Experiment: NS3/4A activity assay with FRET peptide substrate, wild-type enzyme
# Type: biochemical, HCV genotype 1b, strain HC-J4
# Settings: wild-type NS3/4A 10 nM, Ac-DE-D(Edans)-EE-Abu-ψ-[COO]-AS-K(Dabsyl)-NH2 10 µM, 30 min pre-incubation; read-out: NS3/4A IC50
# Excerpt: Reagents were purchased from Sigma unless indicated otherwise. The FRET substrate Ac-DE-D(Edans)-EE-Abu-ψ-[COO]-AS-K(Dabsyl)-NH2, purified recombinant wild-type NS3/4A from HCV genotype 1b, strain HC-J4, and the mutants with the V36M, R155K, A156T, D168A and V170A resistance mutations were from AnaSpec (Fremont, CA). The NS3/4A construct represented the individual NS3 proteinase domain N-terminally fused with an NS4A co-factor and tagged with a 6xHis tag. NS3/4A was in active form and the pre-activation by pep-4A or pep4AK was not necessary. Pyroglutamic acid-Arg-Thr-Lys-Arg-7-amino-4-methylcoumarin was from Peptides International (Louisville, KY). West Nile virus NS2B-NS3 proteinase (strain NY99) was expressed, purified and refolded to restore its functional activity as described earlier. The pET15b-Den2-CF40-Gly-NS3pro 185 plasmid encoding the Dengue virus type 2 NS2B-NS3 protease was a kind gift of Dr. Subhash Vasudevan (Program in Emerging Infectious Diseases, DUKE-NUS Graduate Medical School, Singapore). DV NS2B-NS3 proteinase was expressed purified and refolded to restore its functional activity as described previously, [70]. The expression of the soluble C-terminally truncated human furin construct in Sf9 insect cells (an ovarian cell line from fall armyworm Spodoptera frugiperda; Invitrogen, Carlsbad, CA) infected with the recombinant baculovirus and purification of soluble furin from the medium were described earlier. Original human hepatocarcinoma Huh7 cells were obtained from ATCC (Manassas, VA).
# The NS3/4A activity assay was performed at 37°C in triplicate in wells of a 96-well plate in 0.2 ml 50 mM HEPES, pH 7.5, containing 100 mM NaCl, 10 mM DTT, 20% glycerol, the Ac-DE-D(Edans)-EE-Abu-ψ-[COO]-AS-K(Dabsyl)-NH2 substrate (10 µM) and the NS3/4A enzyme (10 nM). Reaction velocity was monitored continuously at λex = 355 nm and λem = 500 nm for 10 min using a Spectramax Gemini EM fluorescence spectrophotometer (Molecular Devices, Sunnyvale, CA) and the initial rate of reaction v was recorded for each reaction. There was no significant additional absorption by compounds 1–8 we identified, which might interfere with NS3/4A assay. Compound stock solutions (10 mM) were made in 100% DMSO. Stocks were then diluted using the assay buffer. As a result, the final DMSO concentration was always below 1% in the assay reactions.
# To measure the inhibitory potency of the compounds, their increasing concentrations were pre-incubated with the individual proteinases in the corresponding buffer for 30 min at ambient temperature. At least, 7–9 different concentrations were used for each inhibitor. The residual activity of the enzymes was then measured as above. The IC50 values of the inhibitory compounds were calculated by determining the concentrations of the compounds needed to inhibit 50% of the enzyme activity against the peptide substrate. GraphPad Prism was used as fitting software.
# T1 sequence (O92972 1027-1208): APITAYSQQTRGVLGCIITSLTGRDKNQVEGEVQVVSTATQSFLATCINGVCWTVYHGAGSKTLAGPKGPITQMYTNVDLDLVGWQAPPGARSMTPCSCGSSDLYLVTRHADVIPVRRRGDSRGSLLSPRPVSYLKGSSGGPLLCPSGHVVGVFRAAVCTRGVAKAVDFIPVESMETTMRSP
row,Compound,IC50
1,O=C(Nc1ccccc1)c1cc(S(=O)(=O)Nc2nc3ncccc3[nH]2)c(SSc2cc(Cl)c(C(=O)Nc3ccccc3)cc2S(=O)(=O)Nc2nc3ncccc3[nH]2)cc1Cl [Compound 1],183 nM
2,Clc1ccc(OCc2nn3c(CCc4nnc5sc(COc6ccc(Cl)cc6)nn45)nnc3s2)cc1 [Compound 2],300 nM
3,Cc1n[nH]c(=S)n1Nc1nc(SCc2ccccc2)nc2n[nH]c(Cc3nn[nH]n3)c12 [Compound 3],360 nM
4,Clc1ccc(Nc2nc(SCc3ccccc3)nc3n[nH]c(Cc4nc5ccccc5s4)c23)cc1 [Compound 5],380 nM
5,S=c1[nH]nc(Nc2nc(SCc3ccccc3)nc3n[nH]c(Cc4nn[nH]n4)c23)s1 [Compound 6],950 nM
